For one assay, the target named is T1, human LXR beta (Homo sapiens, UniProt P55055).
T1 construct: human LXR beta (aa 155 to 460); made in house; host or cells: E. coli BL21 (pLysS)
T1 sequence (P55055 155-460): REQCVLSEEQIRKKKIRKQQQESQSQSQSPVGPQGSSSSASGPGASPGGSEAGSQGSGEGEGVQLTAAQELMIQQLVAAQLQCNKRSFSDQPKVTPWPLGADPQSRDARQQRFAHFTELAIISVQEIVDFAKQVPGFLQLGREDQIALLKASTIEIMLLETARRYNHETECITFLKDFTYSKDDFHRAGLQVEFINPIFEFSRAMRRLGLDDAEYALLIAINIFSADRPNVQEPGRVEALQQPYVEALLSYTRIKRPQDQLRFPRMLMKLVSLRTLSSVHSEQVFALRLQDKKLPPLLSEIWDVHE
Description: Radioligand binding assay (scintillation proximity), LXR beta-LBD. The conditions noted are these: LXR beta-LBD on SPA beads, read-out: LXRbeta Binding IC50. The protocol: (§1) The following tests were carried out in order to determine the activity of the compounds of the present invention. […] Mammalian expression vectors were constructed to express full-length human LXR alpha and LXR beta. […] To accomplish this, the portions of the sequences encoding the LBDs were amplified from the full-length clones by PCR and then subcloned into the plasmid vectors.
(§2) Induction, expression, and purification of LBD proteins were performed in E. coli strain BL21 (pLysS) cells by standard methods (Ref: Current Protocols in Molecular Biology, Wiley Press, edited by Ausubel et al).
(§3) Radioligand Binding Assay
(§4) LXR alpha and LXR beta receptor binding were assayed in buffer consisting of 50 mM HEPES, pH 7.4, 10 mM NaCl, 5 mM MgCl2. For each 96-well reaction, 500 ng of LXRα-LBD or 700 ng of LXR beta-LBD proteins were bound to 80 μg or 40 μg SPA beads respectively, in a final volume of 50 μl by shaking. The resulting slurry was incubated for 1 h at RT and centrifuged for 2 min at 1300×g. The supernatant containing unbound protein was removed, and the semi-dry pellet containing the receptor-coated beads was re-suspended in 50 μl of buffer. Radioligand (eg. 100,000 dpm of (N-(2,2,2-trifluoroethyl)-N-[4-(2,2,2-trifluoro-1-hydroxy-1-trifluoromethylethyl)-phenyl]-benzenesulfonamide)) was added, and the reaction incubated at RT for 1 h in the presence of test compounds, and then scintillation proximity counting was performed. All binding assays were performed in 96-well plates and the amount of bound ligand was measured on a Packard TopCount using OptiPlates (Packard). Dose response curves were measured within a range of concentration from 10^−10 M to 10^−4 M.

The next assay has as its target T2, human LXR alpha (Homo sapiens, UniProt Q13133).
T2 construct: human LXR alpha (aa 164 to 447); made in house; host or cells: E. coli BL21 (pLysS)
T2 sequence (Q13133 164-447): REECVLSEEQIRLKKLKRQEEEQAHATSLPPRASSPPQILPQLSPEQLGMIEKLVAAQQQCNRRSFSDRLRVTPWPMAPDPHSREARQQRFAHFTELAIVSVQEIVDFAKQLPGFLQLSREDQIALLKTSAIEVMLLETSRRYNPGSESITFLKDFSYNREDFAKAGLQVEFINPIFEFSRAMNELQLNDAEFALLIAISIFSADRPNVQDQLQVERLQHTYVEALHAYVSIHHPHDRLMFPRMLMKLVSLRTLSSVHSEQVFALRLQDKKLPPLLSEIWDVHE
Put plainly: Radioligand binding assay (scintillation proximity), LXRα-LBD. The conditions noted are these: LXRα-LBD on SPA beads, read-out: LXRalpha Binding IC50. The method, then: as §1, §2, §3, §4

Structures are written as SMILES.

Regarding `CS(=O)(=O)c1cccc(-c2ccc(CN(Cc3ccccc3)S(=O)(=O)c3ccccc3Cl)s2)c1` [Example 4, N-Benzyl-2-chloro-N-[5-(3-methanesulfonyl-phenyl)-thiophen-2-ylmethyl]-benzenesulfonamide], the concentration for half-maximal inhibition (IC50) at human LXR beta stood at 123 nM; at human LXR alpha it was 685 nM.

Take `CC(C)CN(Cc1ccc(-c2cccc(S(C)(=O)=O)c2)s1)S(=O)(=O)c1ccccc1Cl` [Example 5, 2-Chloro-N-isobutyl-N-[5-(3-methanesulfonyl-phenyl)-thiophen-2-ylmethyl]-benzenesulfonamide]: the figures for the IC50 at human LXR beta and on human LXR alpha were 102 nM and 1170 nM, respectively.

Consider `CC(C)CN(Cc1ccc(-c2cccc(S(C)(=O)=O)c2)s1)S(=O)(=O)c1c(Cl)cccc1Cl` [Example 18, 2,6-Dichloro-N-isobutyl-N-[5-(3-methanesulfonyl-phenyl)-thiophen-2-ylmethyl]-benzenesulfonamide], for which the IC50 at human LXR beta was 82 nM; on human LXR alpha it was 1440 nM.

On to `CC(C)CN(Cc1cc(-c2cncc(S(C)(=O)=O)c2)cs1)S(=O)(=O)c1ccccc1Cl` [Example 55, 2-Chloro-N-isobutyl-N-[4-(5-methanesulfonyl-pyridin-3-yl)-thiophen-2-ylmethyl]-benzenesulfonamide], for which the IC50 at human LXR beta turned out to be 83 nM; at human LXR alpha, 2530 nM.

`CS(=O)(=O)c1cccc(-c2ccc(CN(CC3CCCO3)S(=O)(=O)c3ccccc3C(F)(F)F)s2)c1` (stereo not shown) [Example 41, N-[5-(3-Methanesulfonyl-phenyl)-thiophen-2-ylmethyl]-N-(tetrahydro-furan-2-ylmethyl)-2-trifluoromethyl-benzenesulfonamide]: the concentration for half-maximal inhibition (IC50) was 37 nM on human LXR beta and 790 nM at human LXR alpha.

Consider `CC(C)S(=O)(=O)N(Cc1cccc(-c2cccc(S(C)(=O)=O)c2)c1)CC1CCC1` [Example 51, Propane-2-sulfonic acid cyclobutylmethyl-(3′-methanesulfonyl-biphenyl-3-ylmethyl)-amide], for which the IC50 amounted to 280 nM at human LXR beta and 1630 nM on human LXR alpha.

As for `CC(C)S(=O)(=O)N(Cc1ccc(F)cc1)Cc1cccc(-c2cccc(S(C)(=O)=O)c2)c1` [Example 53, Propane-2-sulfonic acid (4-fluoro-benzyl)-(3′-methanesulfonyl-biphenyl-3-ylmethyl)-amide], the half-inhibitory concentration (IC50) on human LXR beta is 255 nM; on human LXR alpha it was 2800 nM.

Regarding `Cc1noc(C)c1CN(Cc1ccc(-c2cccc(S(C)(=O)=O)c2)s1)S(=O)(=O)c1ccccc1C(F)(F)F` [Example 34, N-(3,5-Dimethyl-isoxazol-4-ylmethyl)-N-[5-(3-methanesulfonyl-phenyl)-thiophen-2-ylmethyl]-2-trifluoromethyl-benzenesulfonamide], the 50% inhibitory concentration (IC50) was 83 nM at human LXR beta and 60.5 nM on human LXR alpha.

Turning to `CS(=O)(=O)c1cccc(-c2ccc(CN(CC3OCCO3)S(=O)(=O)c3ccccc3C(F)(F)F)s2)c1` [Example 39, N-[1,3]Dioxolan-2-ylmethyl-N-[5-(3-methanesulfonyl-phenyl)-thiophen-2-ylmethyl]-2-trifluoromethyl-benzenesulfonamide], the results for the IC50 on human LXR beta and on human LXR alpha were 47 nM and 820 nM, respectively.

Consider `CCCN(Cc1ccc(-c2cccc(S(C)(=O)=O)c2)s1)S(=O)(=O)c1ccccc1C(F)(F)F` [Example 29, N-[5-(3-Methanesulfonyl-phenyl)-thiophen-2-ylmethyl]-N-propyl-2-trifluoromethyl-benzenesulfonamide], for which the IC50 was determined as 104 nM on human LXR beta and 2460 nM on human LXR alpha.

Regarding `CC(C)CN(Cc1ccc(-c2cccc(S(C)(=O)=O)c2)s1)S(=O)(=O)c1ccccc1C(F)(F)F` [Example 31, N-Isobutyl-N-[5-(3-methanesulfonyl-phenyl)-thiophen-2-ylmethyl]-2-trifluoromethyl-benzenesulfonamide], the results for the IC50 on human LXR beta and at human LXR alpha were 85 nM and 1460 nM, respectively.

On to `CC(C)CN(Cc1cccc(-c2cccc(S(C)(=O)=O)c2)c1)S(=O)(=O)C(C)C` [Example 50, Propane-2-sulfonic acid isobutyl-(3′-methanesulfonyl-biphenyl-3-ylmethyl)-amide], for which the half-inhibitory concentration (IC50) amounted to 805 nM at human LXR beta and 2270 nM at human LXR alpha.

For `CS(=O)(=O)c1cccc(-c2ccc(CN(C(=O)c3ccccc3)S(=O)(=O)c3cccc(Cl)c3)s2)c1` [Example 9, N-Benzoyl-3-chloro-N-[5-(3-methanesulfonyl-phenyl)-thiophen-2-ylmethyl]-benzenesulfonamide], the IC50 on human LXR beta is 980 nM; on human LXR alpha, 2140 nM.

Consider `CS(=O)(=O)c1cccc(-c2ccc(CN(CC3CCC3)S(=O)(=O)c3ccccc3C(F)(F)F)s2)c1` [Example 36, N-Cyclobutylmethyl-N-[5-(3-methanesulfonyl-phenyl)-thiophen-2-ylmethyl]-2-trifluoromethyl-benzenesulfonamide], for which the half-inhibitory concentration (IC50) on human LXR beta amounted to 17.5 nM; on human LXR alpha, 665 nM.

For `CC(C)CN(Cc1ccc(-c2cccc(S(C)(=O)=O)c2)cn1)S(=O)(=O)c1ccccc1Cl` [Example 45, 2-Chloro-N-isobutyl-N-[5-(3-methanesulfonyl-phenyl)-pyridin-2-ylmethyl]-benzenesulfonamide], the values for the concentration for half-maximal inhibition (IC50) on human LXR beta and on human LXR alpha were 2.3 nM and 425 nM, respectively.

`CC(C)S(=O)(=O)N(Cc1cccc(-c2cccc(S(C)(=O)=O)c2)c1)Cc1ccccc1F` [Example 52, Propane-2-sulfonic acid (2-fluoro-benzyl)-(3′-methanesulfonyl-biphenyl-3-ylmethyl)-amide]: the IC50 on human LXR beta worked out at 33.5 nM; on human LXR alpha, 610 nM.

In the case of `CC(C)(C)OC(=O)CN(Cc1ccc(-c2cccc(S(C)(=O)=O)c2)s1)S(=O)(=O)c1ccccc1C(F)(F)F` [Example 37, [[5-(3-Methanesulfonyl-phenyl)-thiophen-2-ylmethyl]-(2-trifluoromethyl-benzenesulfonyl)-amino]-acetic acid tert-butyl ester], the 50% inhibitory concentration (IC50) on human LXR beta came to 11.5 nM; at human LXR alpha, 17.5 nM.

`CS(=O)(=O)c1cccc(-c2ncc(CN(C(=O)c3ccccc3)S(=O)(=O)c3ccccc3Cl)s2)c1` [Example 12, N-Benzoyl-2-chloro-N-[2-(3-methanesulfonyl-phenyl)-thiazol-5-ylmethyl]-benzenesulfonamide]: the IC50 at human LXR beta was 120 nM; on human LXR alpha it was 27300 nM.

As for `COC(=O)c1ccccc1S(=O)(=O)N(Cc1ccc(-c2cccc(S(C)(=O)=O)c2)s1)CC(C)C` [Example 19, 2-{Isobutyl-[5-(3-methanesulfonyl-phenyl)-thiophen-2-ylmethyl]-sulfamoyl}-benzoic acid methyl ester], the IC50 on human LXR beta came out at 59 nM; at human LXR alpha it was 2630 nM.

On to `CS(=O)(=O)c1cccc(-c2ccc(CN(Cc3ccccc3F)S(=O)(=O)c3ccccc3C(F)(F)F)s2)c1` [Example 33, N-(2-Fluoro-benzyl)-N-[5-(3-methanesulfonyl-phenyl)-thiophen-2-ylmethyl]-2-trifluoromethyl-benzenesulfonamide], for which the results for the concentration for half-maximal inhibition (IC50) on human LXR beta and on human LXR alpha were 6.6 nM and 13.5 nM, respectively.

In the case of `CS(=O)(=O)c1cccc(-c2nnc(CN(Cc3ccccc3)S(=O)(=O)c3ccccc3C(F)(F)F)o2)c1` [Example 3, N-Benzyl-N-[5-(3-methanesulfonyl-phenyl)-[1,3,4]oxadiazol-2-ylmethyl]-2-trifluoromethyl-benzenesulfonamide], the IC50 came to 5410 nM at human LXR beta and 5720 nM on human LXR alpha.

Take `CC(C)CN(Cc1ccc(-c2cccc(S(C)(=O)=O)c2)s1)S(=O)(=O)c1cccs1` [Example 21, Thiophene-2-sulfonic acid isobutyl-[5-(3-methanesulfonyl-phenyl)-thiophen-2-ylmethyl]-amide]: the 50% inhibitory concentration (IC50) stood at 140 nM on human LXR beta and 605 nM at human LXR alpha.

With `CC(C)CN(Cc1ccc(-c2cccc(S(C)(=O)=O)c2)s1)S(=O)(=O)c1cccc(Cl)c1F` [Example 22, 3-Chloro-2-fluoro-N-isobutyl-N-[5-(3-methanesulfonyl-phenyl)-thiophen-2-ylmethyl]-benzenesulfonamide], the IC50 on human LXR beta was 22.5 nM; on human LXR alpha it was 1380 nM.
